PMC12518634, “The noncanonical function of liver-type phosphofructokinase potentiates the efficacy of HDAC inhibitors in cancer” (Signal Transduction and Targeted Therapy, 2025)
Read-outs that look alike come from different tables or passages of the source.

Assays:
[1] = tested on: 1405R3; assay: High-throughput drug screen, CellTiter-Glo viability, 72 h; assay type: cell-based, human; parameters: AUC: scale not given here; conditions: for EC50: 72 h, fitted dose-response curve, Min.Conc.tested 1, Max.Conc.tested 10000, read-out: EC50; for AUC: area under the dose-response curve; for MIN: lower asymptote of fitted dose-response curve; for SLOPE: slope of fitted dose-response curve
Summary of the method: (§1)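 Cholangiocarcinoma cells were seeded at 3000/well in 384-well plates and dosed after 24 h. Drugs were tested at 10, 1, 0.1, 0.01 and 0.001 μM in duplicate for 72 h, with viability read by CellTiter-Glo luminescence.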

[2] = tested on: 783C-6; assay: as above; assay type: cell-based, human; parameters: AUC: scale not given here; conditions: for EC50: 72 h, read-out: EC50; for AUC: area under the dose-response curve
Summary of the method: as §1

[3] = 1405R3 DSRT analysis, CellTiter-Glo viability, GI50
[4] = 1405R3 DSRT analysis, drug sensitivity score
[5] = 783C-6 cells, DSRT analysis, CellTiter-Glo viability, concentrations tested 1 to 10000 (unit inferred), GI50
[6] = 783C-6 cells, DSS of DSRT analysis
[7] = 783C-6 cells, minimum of dose-response curve
[8] = 783C-6 cells, slope of fitted dose-response curve
[9] = 783C-6 DSRT analysis, DSS calculated from the dose-response curve
[10] = 783C-6 DSRT analysis, MIN of the fitted dose-response curve
[11] = 783C-6 DSRT analysis, slope of the fitted dose-response curve
[12] = 1405R3 DSRT analysis, CellTiter-Glo
[13] = Homo sapiens, 1405R3 DSRT analysis, CellTiter-Glo viability, GI50
[14] = 783C-6 DSRT analysis, CellTiter-Glo viability, fitted dose-response curve, Min.Conc.tested 1, Max.Conc.tested 10000
[15] = Homo sapiens, 1405R3 DSRT analysis, CellTiter-Glo

| Compound | AUC ([1]; 1405R3 DSRT analysis) | DSS [1, 4] | MIN ([1]; 1405R3 DSRT analysis) | SLOPE ([1]; 1405R3 DSRT analysis) | DSS [2, 6] | AUC ([2]; 783C-6 cells) | MIN [2, 7] | DSS ([1]; 1405R3 DSRT analysis, DSS) | DSS [2, 9] | MIN [2, 10] | AUC ([2]; 783C-6 DSRT analysis) | SLOPE [2, 11] | further results |
| --- | --- | --- | --- | --- | --- | --- | --- | --- | --- | --- | --- | --- | --- |
| CCCCNNC(=O)c1ccc(-c2cccc(F)c2F)cc1 [SR-4370] | 63.7 | 7.2 | 6.9 | -2.5 | 6.1 | 54.2 | 7.5 | – | – | – | – | – | EC50 [1, 3]: 2080 nM; EC50 [2, 5]: 2630 nM; SLOPE [2, 8]: -2.5 |
| CC(C)(CNC(=O)c1cccc(-c2noc(C(F)(F)F)n2)c1)c1coc(-c2ccccc2)n1 [TMP195] | 1.1 | 0 | 97.2 | -0.8 | 0 | 1.4 | 96 | – | – | – | – | – | SLOPE [2, 8]: -0.9 |
| CCCC(CCC)C(=O)O [Valproic acid] | 18.4 | 0 | 88.1 | – | 0 | 4.4 | 85.5 | – | – | – | – | – | – |
| O=C1[C@H](Cc2ccc(O)cc2)N2C(=O)CCN(C(=O)NCc3ccccc3)[C@H]2CN1Cc1cccc2ccccc12 [ICG-001] | 0.1 | – | 100 | -0.1 | – | – | – | 0 | 0 | 90.7 | 16.9 | -2.5 | – |
| C=CC(=O)N1CC[C@H](n2nc(C#Cc3cc(OC)cc(OC)c3)c3c(N)ncnc32)C1 [TAS-120] | 7.2 | 0 | 91.3 | – | 0 | 1.7 | 94.4 | – | – | – | – | – | – |
| Cc1sc2c(c1C)C(c1ccc(Cl)cc1)=N[C@@H](CC(N)=O)c1nnc(C)n1-2 [CPI-203] | 111.9 | – | 33.4 | -1.2 | – | – | – | 13 | 0 | 93.6 | 3.2 | -0.7 | EC50 [1, 12]: 210 nM |
| Cc1cc(Nc2cc(N3CCN(C)CC3)nc(Sc3ccc(NC(=O)C4CC4)cc3)n2)[nH]n1 [Tozasertib] | 19.9 | – | 76.4 | – | 4.1 | 41.4 | 78.1 | – | – | – | – | – | DSS [1]: 1.8 |
| CCC(CC)(NC(=O)C(C)C)C(=O)N[C@@H](CCCN=C(N)N)C(=O)NC1(C(=O)NC(c2ccc(F)cc2)c2ccc(F)cc2)CCCC1 [MM-102] | 18.6 | – | 88.1 | -0.1 | – | – | – | 0 | 0 | 88.1 | 18.6 | -0.1 | – |
| Cc1nn2c([nH]c(=O)c3cccnc32)c1C#N [KDM4D-IN-1] | 9.3 | – | 94 | -0.1 | – | – | – | 0 | 0 | 93.6 | 0.8 | -2.5 | – |
| CCCCc1nc2cc(/C=C/C(=O)NO)ccc2n1CCN(CC)CC [Pracinostat] | 75.5 | 8.7 | 3.4 | – | 7.3 | 64.3 | 3.1 | – | – | – | – | – | EC50 [1, 13]: 1660 nM; EC50 ([2]; Homo sapiens): 2190 nM |
| Cc1sc2c(c1C)C(c1ccc(Cl)cc1)=N[C@@H](CC(=O)NCCCCCCCCNC(=O)COc1cccc3c1C(=O)N(C1CCC(=O)NC1=O)C3=O)c1nnc(C)n1-2 (stereo partly drawn) [DBET6] | 8.2 | – | 80 | -2.5 | – | – | – | 0.4 | 6.9 | 29.1 | 59.2 | -2.5 | EC50 [2, 14]: 1470 nM |
| Nc1ccccc1NC(=O)c1ccc(CNc2nccc(-c3cccnc3)n2)cc1 [Mocetinostat] | 100.5 | 11.8 | 1.1 | – | 11.6 | 98.8 | 4.8 | – | – | – | – | – | EC50 [1, 13]: 965 nM; EC50 ([2]; Homo sapiens): 917 nM |
| Cc1ccc(F)c(NC(=O)Nc2ccc(-c3cccc4[nH]nc(N)c34)cc2)c1 [Linifanib] | 3.9 | – | 97.4 | – | – | – | – | 0 | 3.9 | 68.4 | 53 | – | EC50 ([2]; Homo sapiens): 255 nM |
| (-)-Parthenolide | 33.7 | – | 34.2 | -2.5 | – | – | – | 3.6 | 2.7 | 68.4 | 26.5 | -2.5 | EC50 [1, 12]: 3140 nM; EC50 [2, 14]: 1460 nM |
| CN1CCC(CNc2ccc3ncc(-c4cccc(OC(F)(F)F)c4)n3n2)CC1 [SGI-1776 free base] | 51.4 | 5.7 | 1.9 | -2.5 | 4.9 | 44.9 | 10.3 | – | – | – | – | – | EC50 [1, 3]: 3060 nM; EC50 [2, 5]: 3230 nM; SLOPE [2, 8]: -2.5 |
| CCOC(=O)NCCCC(=O)NCCc1ccccc1 [Santacruzamate A] | 1 | 0 | 92 | -2.5 | 0 | 2.2 | 94.7 | – | – | – | – | – | SLOPE [2, 8]: -0.7 |
| O=C(CCCCCCNC(=O)c1cnc(N(c2ccccc2)c2ccccc2Cl)nc1)NO [Citarinostat] | 32.3 | – | 46.8 | – | – | – | – | 3.5 | 3.4 | 50.9 | 31.7 | – | EC50 [1, 15]: 2500 nM; EC50 ([2]; Homo sapiens): 2280 nM |
| CCN1CCN(c2ccc(Nc3cc(N(C)C(=O)Nc4c(Cl)c(OC)cc(OC)c4Cl)ncn3)cc2)CC1 [BGJ398] | 50.1 | – | 7.2 | – | – | – | – | 5.5 | 8 | 7.1 | 70 | – | EC50 [1, 15]: 2940 nM; EC50 ([2]; Homo sapiens): 1770 nM |
| O=C(CCCCCCC(=O)Nc1ccc([C@H]2O[C@@H](CSc3nc(-c4ccccc4)c(-c4ccccc4)o3)C[C@@H](c3ccc(CO)cc3)O2)cc1)NO [Tubacin] | 41.9 | 0 | 73.1 | – | 0 | 7.2 | 76.2 | – | – | – | – | – | – |
| Cc1cc(Cl)ccc1OCCCC(=O)NO [Droxinostat] | 1.2 | – | 97.1 | -0.7 | – | – | – | 0 | 0 | 90.5 | 2.9 | -1 | – |
| Cc1cc(Nc2ccc(NC(=O)c3ccc(Nc4ccnc5ccccc45)cc3)cc2)nc(N)n1 [SGI-1027] | 19.4 | 0 | 87.3 | -0.4 | 0 | 2.3 | 92.3 | – | – | – | – | – | SLOPE [2, 8]: -1 |
| O=C(NO)c1cnc(NC2(c3cccc(F)c3)CCCCC2)nc1 [ACY-775] | 0.4 | – | 98.9 | -0.9 | – | – | – | 0 | 0 | 97.3 | 2.4 | -0.3 | – |
| Nc1ccccc1NC(=O)CCCCCCC(=O)Nc1ccccc1 [BML-210] | 5.7 | – | 96.1 | -0.1 | – | – | – | 0 | 0 | 97 | 3.9 | -2.5 | – |
| O=C(O)CCCc1ccccc1 [Sodium Phenylbutyrate] | 9.3 | 0 | 90.9 | – | 0 | 15 | 91.2 | – | – | – | – | – | – |
| O=C(O)[C@]1(Cc2cccc(Nc3nccs3)n2)CC[C@@H](Oc2cccc(Cl)c2F)CC1 [MK-5108] | 0.5 | – | 98.2 | – | – | – | – | 0 | 4.3 | 74.1 | 61.3 | – | EC50 ([2]; Homo sapiens): 22.8 nM |
| CN1CCN(c2ccc3nc(-c4c(N)c5c(F)cccc5[nH]c4=O)[nH]c3c2)CC1 [Dovitinib] | 38.6 | – | 29.8 | – | – | – | – | 4.2 | 4.1 | 35.6 | 37 | – | EC50 [1, 15]: 2870 nM; EC50 ([2]; Homo sapiens): 2700 nM |
| O=C(CCCCCCC(=O)NO)NO [Suberohydroxamic acid] | 0.5 | 0 | 98 | – | 0 | 1.4 | 95.2 | – | – | – | – | – | – |
| COc1ccc(N(C)c2nc(C)nc3ccccc23)cc1OCCCC(=O)NO [SKLB-23bb] | 79.5 | 8.2 | 33.2 | -0.8 | 13.8 | 111 | 50 | – | – | – | – | – | EC50 [1, 3]: 731 nM; EC50 [2, 5]: 60.2 nM; SLOPE [2, 8]: -2.5 |
| CCCCCCCCCCCCCCCCNNC(=O)c1cccs1 [SIS17] | 24.4 | 0 | 84.3 | -0.1 | 0 | 4.7 | 84.4 | – | – | – | – | – | SLOPE [2, 8]: -1 |
